Test results as given in ChEMBL document CHEMBL3991601, “The target landscape of clinical kinase drugs” (Science, 2017).
Calls of active or inactive are those of the source.

Legend:
[1] = molecular target: RAC-gamma serine/threonine-protein kinase (Homo sapiens, UniProt Q9Y243)
[2] = molecular target: T1, Cysteine--tRNA ligase, cytoplasmic (Homo sapiens, UniProt P49589)
T1 sequence (P49589 whole entry): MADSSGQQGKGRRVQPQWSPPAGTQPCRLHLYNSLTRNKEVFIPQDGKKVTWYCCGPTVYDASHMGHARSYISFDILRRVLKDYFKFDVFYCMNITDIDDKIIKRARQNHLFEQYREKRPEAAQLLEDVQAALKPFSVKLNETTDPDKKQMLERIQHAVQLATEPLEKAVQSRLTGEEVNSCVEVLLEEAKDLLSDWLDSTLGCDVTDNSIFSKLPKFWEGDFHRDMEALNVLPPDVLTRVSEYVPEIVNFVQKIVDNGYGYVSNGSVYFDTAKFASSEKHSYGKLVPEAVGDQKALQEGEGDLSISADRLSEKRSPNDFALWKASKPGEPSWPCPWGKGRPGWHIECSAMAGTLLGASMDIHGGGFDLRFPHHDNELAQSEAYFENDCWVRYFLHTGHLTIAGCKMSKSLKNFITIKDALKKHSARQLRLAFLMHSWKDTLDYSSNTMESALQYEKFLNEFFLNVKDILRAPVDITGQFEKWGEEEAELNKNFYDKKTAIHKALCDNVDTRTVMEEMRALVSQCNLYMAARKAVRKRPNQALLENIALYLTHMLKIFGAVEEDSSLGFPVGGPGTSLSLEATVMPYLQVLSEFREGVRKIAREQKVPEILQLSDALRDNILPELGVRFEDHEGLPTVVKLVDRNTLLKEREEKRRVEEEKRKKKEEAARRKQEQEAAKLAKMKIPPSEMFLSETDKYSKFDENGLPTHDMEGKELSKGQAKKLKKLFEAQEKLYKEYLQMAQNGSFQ

[3] = molecular target: Cyclin-dependent kinase 12 (Homo sapiens, UniProt Q9NYV4)
[4] = molecular target: Dual specificity mitogen-activated protein kinase kinase 2 (Homo sapiens, UniProt P36507)
[5] = molecular target: T2, Mitogen-activated protein kinase 15 (Homo sapiens, UniProt Q8TD08)
T2 sequence (Q8TD08 whole entry): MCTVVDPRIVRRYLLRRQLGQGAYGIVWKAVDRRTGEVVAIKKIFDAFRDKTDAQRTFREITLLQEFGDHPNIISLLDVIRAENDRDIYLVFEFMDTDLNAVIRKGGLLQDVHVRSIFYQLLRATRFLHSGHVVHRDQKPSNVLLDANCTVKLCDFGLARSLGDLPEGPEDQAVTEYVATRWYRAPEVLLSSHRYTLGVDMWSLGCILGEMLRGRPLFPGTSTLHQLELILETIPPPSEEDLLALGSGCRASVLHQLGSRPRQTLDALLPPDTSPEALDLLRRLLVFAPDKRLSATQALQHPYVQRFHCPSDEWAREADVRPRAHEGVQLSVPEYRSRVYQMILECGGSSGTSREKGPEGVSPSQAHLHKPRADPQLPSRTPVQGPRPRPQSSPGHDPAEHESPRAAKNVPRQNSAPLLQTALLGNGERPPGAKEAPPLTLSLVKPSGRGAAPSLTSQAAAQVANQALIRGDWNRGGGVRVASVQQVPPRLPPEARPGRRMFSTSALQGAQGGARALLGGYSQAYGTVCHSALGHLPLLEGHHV

[6] = molecular target: Mitogen-activated protein kinase 3 (Homo sapiens, UniProt P27361)
[7] = molecular target: Mitogen-activated protein kinase 7 (Homo sapiens, UniProt Q13164)
[8] = molecular target: Mitogen-activated protein kinase 8 (Homo sapiens, UniProt P45983)
[9] = molecular target: Obg-like ATPase 1 (Homo sapiens, UniProt Q9NTK5)
[10] = molecular target: T3, Serine/threonine-protein kinase D2 (Homo sapiens, UniProt Q9BZL6)
T3 sequence (Q9BZL6 whole entry): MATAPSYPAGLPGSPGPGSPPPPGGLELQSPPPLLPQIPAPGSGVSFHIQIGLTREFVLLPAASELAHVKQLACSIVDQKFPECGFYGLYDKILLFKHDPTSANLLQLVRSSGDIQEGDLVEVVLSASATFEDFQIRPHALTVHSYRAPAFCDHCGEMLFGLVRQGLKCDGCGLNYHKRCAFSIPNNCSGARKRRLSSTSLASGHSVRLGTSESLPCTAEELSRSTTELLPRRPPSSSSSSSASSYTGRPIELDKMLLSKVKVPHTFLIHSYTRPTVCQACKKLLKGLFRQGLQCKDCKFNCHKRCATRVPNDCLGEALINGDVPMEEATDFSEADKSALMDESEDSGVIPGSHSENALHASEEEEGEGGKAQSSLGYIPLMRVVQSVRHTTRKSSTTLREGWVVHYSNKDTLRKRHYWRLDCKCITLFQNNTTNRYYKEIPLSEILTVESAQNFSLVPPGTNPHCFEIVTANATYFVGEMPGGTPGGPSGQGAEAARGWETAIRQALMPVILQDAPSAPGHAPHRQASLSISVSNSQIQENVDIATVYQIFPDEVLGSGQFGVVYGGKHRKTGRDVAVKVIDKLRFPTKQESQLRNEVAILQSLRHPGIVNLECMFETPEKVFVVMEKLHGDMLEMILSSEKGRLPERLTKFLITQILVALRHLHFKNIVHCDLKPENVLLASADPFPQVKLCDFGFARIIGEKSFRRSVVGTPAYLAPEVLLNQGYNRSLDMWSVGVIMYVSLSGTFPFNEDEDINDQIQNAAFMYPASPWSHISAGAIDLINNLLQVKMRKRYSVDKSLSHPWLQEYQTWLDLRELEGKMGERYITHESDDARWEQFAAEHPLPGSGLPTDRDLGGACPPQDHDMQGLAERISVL
Note: in the data inactive means no Kd found up to 30 µM.

Sequence of Mitogen-activated protein kinase 3 (P27361 whole entry): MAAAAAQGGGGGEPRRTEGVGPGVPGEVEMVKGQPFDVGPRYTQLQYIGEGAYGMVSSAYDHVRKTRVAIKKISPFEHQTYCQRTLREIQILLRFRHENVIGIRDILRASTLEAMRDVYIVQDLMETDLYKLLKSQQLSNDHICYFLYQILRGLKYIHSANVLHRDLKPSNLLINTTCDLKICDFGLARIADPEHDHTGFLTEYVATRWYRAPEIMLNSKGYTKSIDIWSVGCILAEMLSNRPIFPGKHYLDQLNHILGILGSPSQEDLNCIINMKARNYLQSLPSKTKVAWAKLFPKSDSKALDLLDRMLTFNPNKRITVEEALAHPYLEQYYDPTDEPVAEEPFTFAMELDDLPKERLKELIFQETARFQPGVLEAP
Sequence of Mitogen-activated protein kinase 7 (Q13164 whole entry): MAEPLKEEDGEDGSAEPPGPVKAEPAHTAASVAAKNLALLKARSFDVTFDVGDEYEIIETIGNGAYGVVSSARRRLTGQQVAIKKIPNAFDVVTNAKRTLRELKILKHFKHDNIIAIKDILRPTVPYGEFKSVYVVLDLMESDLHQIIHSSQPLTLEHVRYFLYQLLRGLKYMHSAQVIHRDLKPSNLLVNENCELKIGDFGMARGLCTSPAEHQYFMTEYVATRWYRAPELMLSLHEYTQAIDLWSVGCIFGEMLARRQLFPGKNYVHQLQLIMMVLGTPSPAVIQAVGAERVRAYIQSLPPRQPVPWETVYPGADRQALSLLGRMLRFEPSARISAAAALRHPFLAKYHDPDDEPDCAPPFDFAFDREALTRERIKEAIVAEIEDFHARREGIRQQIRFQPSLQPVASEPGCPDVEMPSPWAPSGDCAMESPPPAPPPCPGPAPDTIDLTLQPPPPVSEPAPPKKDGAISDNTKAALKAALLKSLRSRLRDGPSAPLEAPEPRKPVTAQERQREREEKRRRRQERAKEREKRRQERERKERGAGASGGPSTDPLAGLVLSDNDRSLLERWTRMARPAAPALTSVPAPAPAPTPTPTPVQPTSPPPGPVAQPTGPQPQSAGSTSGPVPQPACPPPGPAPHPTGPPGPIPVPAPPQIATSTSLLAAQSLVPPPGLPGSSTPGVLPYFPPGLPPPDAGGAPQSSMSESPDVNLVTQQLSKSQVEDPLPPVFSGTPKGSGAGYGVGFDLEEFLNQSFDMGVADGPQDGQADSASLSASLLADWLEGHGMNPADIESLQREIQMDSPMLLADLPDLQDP
Sequence of Obg-like ATPase 1 (Q9NTK5 whole entry, looked up): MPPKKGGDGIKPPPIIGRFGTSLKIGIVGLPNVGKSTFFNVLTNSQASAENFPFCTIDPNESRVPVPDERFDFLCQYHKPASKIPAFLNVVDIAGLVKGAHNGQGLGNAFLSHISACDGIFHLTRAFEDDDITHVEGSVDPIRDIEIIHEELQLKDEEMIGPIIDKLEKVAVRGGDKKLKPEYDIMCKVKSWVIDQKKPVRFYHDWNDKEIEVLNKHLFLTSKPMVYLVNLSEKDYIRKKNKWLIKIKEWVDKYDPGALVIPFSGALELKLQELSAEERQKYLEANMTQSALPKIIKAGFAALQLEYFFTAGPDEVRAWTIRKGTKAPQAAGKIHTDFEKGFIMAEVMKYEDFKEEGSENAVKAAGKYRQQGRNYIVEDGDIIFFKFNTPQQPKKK
Sequence of Mitogen-activated protein kinase 8 (P45983 whole entry): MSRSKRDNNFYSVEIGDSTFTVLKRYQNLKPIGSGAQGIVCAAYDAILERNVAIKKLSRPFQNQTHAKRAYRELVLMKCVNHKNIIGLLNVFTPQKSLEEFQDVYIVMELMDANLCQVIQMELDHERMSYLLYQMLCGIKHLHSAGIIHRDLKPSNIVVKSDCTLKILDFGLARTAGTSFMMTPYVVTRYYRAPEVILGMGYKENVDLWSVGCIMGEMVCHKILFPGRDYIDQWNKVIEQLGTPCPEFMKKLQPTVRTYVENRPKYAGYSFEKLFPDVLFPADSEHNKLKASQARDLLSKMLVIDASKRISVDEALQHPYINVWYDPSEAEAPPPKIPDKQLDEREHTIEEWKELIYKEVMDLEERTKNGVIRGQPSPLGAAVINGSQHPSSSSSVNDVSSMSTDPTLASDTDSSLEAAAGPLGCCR
Sequence of Cyclin-dependent kinase 12 (Q9NYV4 whole entry): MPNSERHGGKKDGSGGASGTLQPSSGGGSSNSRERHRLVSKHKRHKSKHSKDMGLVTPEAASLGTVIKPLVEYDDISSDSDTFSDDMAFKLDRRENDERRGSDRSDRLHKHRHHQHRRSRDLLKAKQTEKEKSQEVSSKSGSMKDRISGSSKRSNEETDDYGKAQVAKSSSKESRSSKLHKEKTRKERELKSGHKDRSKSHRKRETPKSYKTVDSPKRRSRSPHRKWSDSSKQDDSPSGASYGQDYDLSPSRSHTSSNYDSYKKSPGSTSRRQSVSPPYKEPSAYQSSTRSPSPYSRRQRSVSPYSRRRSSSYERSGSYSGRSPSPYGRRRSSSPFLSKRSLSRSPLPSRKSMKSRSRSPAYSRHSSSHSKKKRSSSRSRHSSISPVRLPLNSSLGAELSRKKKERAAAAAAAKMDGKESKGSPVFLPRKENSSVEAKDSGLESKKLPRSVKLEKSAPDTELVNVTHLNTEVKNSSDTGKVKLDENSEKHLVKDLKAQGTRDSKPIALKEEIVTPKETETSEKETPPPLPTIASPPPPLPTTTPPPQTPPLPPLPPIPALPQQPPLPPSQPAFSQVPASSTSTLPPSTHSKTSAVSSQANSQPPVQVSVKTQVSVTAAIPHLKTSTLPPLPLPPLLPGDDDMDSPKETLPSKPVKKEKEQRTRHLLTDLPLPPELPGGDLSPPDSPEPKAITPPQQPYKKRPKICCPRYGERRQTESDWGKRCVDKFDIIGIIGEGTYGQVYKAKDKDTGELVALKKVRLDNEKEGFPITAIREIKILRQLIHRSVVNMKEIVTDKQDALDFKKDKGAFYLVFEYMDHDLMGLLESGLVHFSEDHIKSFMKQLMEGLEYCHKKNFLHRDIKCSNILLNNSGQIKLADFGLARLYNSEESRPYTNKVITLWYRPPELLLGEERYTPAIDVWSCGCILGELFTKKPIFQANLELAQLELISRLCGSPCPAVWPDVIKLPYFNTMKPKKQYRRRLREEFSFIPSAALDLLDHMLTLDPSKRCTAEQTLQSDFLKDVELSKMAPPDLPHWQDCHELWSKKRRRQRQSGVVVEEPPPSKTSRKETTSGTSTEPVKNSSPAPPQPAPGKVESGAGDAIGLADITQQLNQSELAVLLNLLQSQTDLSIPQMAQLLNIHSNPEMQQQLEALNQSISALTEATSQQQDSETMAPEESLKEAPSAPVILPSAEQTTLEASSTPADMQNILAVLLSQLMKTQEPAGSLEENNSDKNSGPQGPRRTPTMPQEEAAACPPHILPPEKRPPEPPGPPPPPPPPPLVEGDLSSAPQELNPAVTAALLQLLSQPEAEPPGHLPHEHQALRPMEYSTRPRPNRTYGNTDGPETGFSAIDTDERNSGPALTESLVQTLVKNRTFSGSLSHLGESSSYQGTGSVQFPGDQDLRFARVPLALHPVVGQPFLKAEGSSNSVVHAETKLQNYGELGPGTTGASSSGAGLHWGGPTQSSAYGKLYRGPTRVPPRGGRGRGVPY
Sequence of RAC-gamma serine/threonine-protein kinase (Q9Y243 whole entry): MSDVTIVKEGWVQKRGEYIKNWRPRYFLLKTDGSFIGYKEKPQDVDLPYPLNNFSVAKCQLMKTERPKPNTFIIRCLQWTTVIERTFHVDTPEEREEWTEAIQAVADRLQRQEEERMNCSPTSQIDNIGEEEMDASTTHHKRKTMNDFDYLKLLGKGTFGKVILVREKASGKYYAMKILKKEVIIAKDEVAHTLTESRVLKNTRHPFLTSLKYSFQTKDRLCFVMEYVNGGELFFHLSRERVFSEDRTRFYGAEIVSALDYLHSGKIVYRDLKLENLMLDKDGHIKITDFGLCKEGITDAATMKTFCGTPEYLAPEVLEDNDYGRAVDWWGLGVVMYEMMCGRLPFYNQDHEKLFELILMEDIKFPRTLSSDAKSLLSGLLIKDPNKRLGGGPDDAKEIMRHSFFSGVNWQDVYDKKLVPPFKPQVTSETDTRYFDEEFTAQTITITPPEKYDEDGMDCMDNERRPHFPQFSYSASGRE
Sequence of Dual specificity mitogen-activated protein kinase kinase 2 (P36507 whole entry): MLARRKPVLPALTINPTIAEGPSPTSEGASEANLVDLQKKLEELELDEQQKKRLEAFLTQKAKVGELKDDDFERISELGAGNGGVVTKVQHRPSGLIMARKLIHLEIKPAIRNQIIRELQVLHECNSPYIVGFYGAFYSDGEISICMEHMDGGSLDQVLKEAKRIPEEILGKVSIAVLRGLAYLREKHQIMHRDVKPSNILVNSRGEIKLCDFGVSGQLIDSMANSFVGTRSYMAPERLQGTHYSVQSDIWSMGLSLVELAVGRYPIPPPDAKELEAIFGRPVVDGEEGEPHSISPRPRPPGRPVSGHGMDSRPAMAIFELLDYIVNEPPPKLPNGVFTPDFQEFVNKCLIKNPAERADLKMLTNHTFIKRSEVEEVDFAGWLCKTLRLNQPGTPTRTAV

Kd [1] | Kd [2] | Kd [3] | Kd [4] | Kd [6] | Kd [7] | Kd [8] | Kd [9] | Kd [10] | Compound | Kd [5]
> 30 µM (inactive) | > 30 µM (inactive) | > 30 µM (inactive) | > 30 µM (inactive) | > 30 µM (inactive) | > 30 µM (inactive) | > 30 µM (inactive) | > 30 µM (inactive) | > 30 µM (inactive) | S=C(NCc1ccc2c(c1)OCO2)N1CCN(c2ncnc3c2oc2ccccc23)CC1 [AMUVATINIB] | > 30 µM (inactive)
> 30 µM (inactive) | > 30 µM (inactive) | > 30 µM (inactive) | > 30 µM (inactive) | > 30 µM (inactive) | > 30 µM (inactive) | > 30 µM (inactive) | > 30 µM (inactive) | > 30 µM (inactive) | Cc1cc(Nc2nc(N[C@@H](C)c3ncc(F)cn3)ncc2Cl)n[nH]1 [AZD-1480] | > 30 µM (inactive)
> 30 µM (inactive) | > 30 µM (inactive) | > 30 µM (inactive) | > 30 µM (inactive) | > 30 µM (inactive) | > 30 µM (inactive) | > 30 µM (inactive) | > 30 µM (inactive) | 2.54 µM (active) | O=S(=O)(c1cccc2c(O)nccc12)N1CCCNCC1 [HYDROXYFASUDIL] | > 30 µM (inactive)
> 30 µM (inactive) | > 30 µM (inactive) | > 30 µM (inactive) | > 30 µM (inactive) | > 30 µM (inactive) | > 30 µM (inactive) | > 30 µM (inactive) | > 30 µM (inactive) | > 30 µM (inactive) | C[C@@H]1COC(Nc2ccc3ncnc(Nc4ccc(OCc5nccs5)c(Cl)c4)c3c2)=N1 [VARLITINIB] | > 30 µM (inactive)
> 30 µM (inactive) | > 30 µM (inactive) | > 30 µM (inactive) | > 30 µM (inactive) | > 30 µM (inactive) | > 30 µM (inactive) | > 30 µM (inactive) | > 30 µM (inactive) | > 30 µM (inactive) | CCc1cc2c(cc1N1CCC(N3CCOCC3)CC1)C(C)(C)c1[nH]c3cc(C#N)ccc3c1C2=O [ALECTINIB] | > 30 µM (inactive)
> 30 µM (inactive) | > 30 µM (inactive) | > 30 µM (inactive) | > 30 µM (inactive) | > 30 µM (inactive) | > 30 µM (inactive) | > 30 µM (inactive) | > 30 µM (inactive) | > 30 µM (inactive) | COc1cc2ncnc(Nc3ccc(F)c(Cl)c3)c2cc1NC(=O)/C=C/CN1CCCCC1 [DACOMITINIB ANHYDROUS] | > 30 µM (inactive)
> 30 µM (inactive) | 0.652 µM (active) | > 30 µM (inactive) | > 30 µM (inactive) | > 30 µM (inactive) | > 30 µM (inactive) | > 30 µM (inactive) | > 30 µM (inactive) | > 30 µM (inactive) | C#Cc1cccc(Nc2ncnc3cc4c(cc23)OCCOCCOCCO4)c1 [ICOTINIB] | > 30 µM (inactive)
> 30 µM (inactive) | > 30 µM (inactive) | > 30 µM (inactive) | > 30 µM (inactive) | > 30 µM (inactive) | > 30 µM (inactive) | > 30 µM (inactive) | > 30 µM (inactive) | > 30 µM (inactive) | COc1ccc2c(OCc3nnc4ccc(-c5ccccc5)nn34)ccnc2c1 [AMG-208] | > 30 µM (inactive)
> 30 µM (inactive) | > 30 µM (inactive) | > 30 µM (inactive) | > 30 µM (inactive) | > 30 µM (inactive) | > 30 µM (inactive) | > 30 µM (inactive) | > 30 µM (inactive) | > 30 µM (inactive) | CNC(=O)c1cccc(-c2ccc3c(N4CCOC[C@@H]4C)nc(N4CCOC[C@@H]4C)nc3n2)c1 [VISTUSERTIB] | > 30 µM (inactive)
0.006 µM | > 30 µM (inactive) | > 30 µM (inactive) | > 30 µM (inactive) | > 30 µM (inactive) | > 30 µM (inactive) | > 30 µM (inactive) | > 30 µM (inactive) | > 30 µM (inactive) | COc1cc2ncnc3c2cc1OCCCCCN(C)Cc1ccc(Br)cc1N3 [JNJ-26483327] | > 30 µM (inactive)
> 30 µM (inactive) | > 30 µM (inactive) | > 30 µM (inactive) | > 30 µM (inactive) | > 30 µM (inactive) | > 30 µM (inactive) | > 30 µM (inactive) | > 30 µM (inactive) | > 30 µM (inactive) | COc1cc2nccc(Oc3ccc(NC(=O)C4(C(=O)Nc5ccc(F)cc5)CC4)cc3)c2cc1OC [CABOZANTINIB] | > 30 µM (inactive)

Compound | Kd [1] | Kd [2] | Kd [3] | Kd [4] | Kd [6] | Kd [7] | Kd [8] | Kd [9] | Kd [10] | Kd [5]
COc1cc(F)c(F)c(Nc2ccc(I)cc2F)c1NS(=O)(=O)C1(C[C@H](O)CO)CC1 [REFAMETINIB] | > 30 µM (inactive) | > 30 µM (inactive) | > 30 µM (inactive) | 0.176 µM (active) | > 30 µM (inactive) | > 30 µM (inactive) | > 30 µM (inactive) | > 30 µM (inactive) | > 30 µM (inactive) | > 30 µM (inactive)
CC1(COc2ccc3c(c2)ncn3-c2ccc3cccc(N4CCC(N)CC4)c3n2)COC1 [CRENOLANIB] | > 30 µM (inactive) | > 30 µM (inactive) | > 30 µM (inactive) | > 30 µM (inactive) | > 30 µM (inactive) | > 30 µM (inactive) | > 30 µM (inactive) | 0.007 µM | > 30 µM (inactive) | > 30 µM (inactive)
COCCN1CCN(Cc2ccc(-c3n[nH]c4c3C(=O)c3c(NC(=O)NN5CCOCC5)cccc3-4)cc2)CC1 [RGB-286638] | > 30 µM (inactive) | > 30 µM (inactive) | 0.947 µM (active) | > 30 µM (inactive) | > 30 µM (inactive) | > 30 µM (inactive) | 0.731 µM (active) | > 30 µM (inactive) | 0.195 µM (active) | > 30 µM (inactive)
Cc1c(Cn2c(C)nc3c(C(=O)O)cc(N4CCOCC4)cc32)cccc1C(F)(F)F [GSK-2636771] | > 30 µM (inactive) | > 30 µM (inactive) | > 30 µM (inactive) | > 30 µM (inactive) | > 30 µM (inactive) | > 30 µM (inactive) | > 30 µM (inactive) | > 30 µM (inactive) | > 30 µM (inactive) | > 30 µM (inactive)
